Assay: Stability test of the crystal
Format: physicochemical
Conditions: crystal containing 1/3 isopropanol

stability in the stability test: stable
Compound: Nc1nc(/C(=N/O)C(=O)N[C@@H]2C(=O)N3C(C(=O)O)=C(SCc4cn[nH]c4)CS[C@H]23)cs1 [Example 37, 7β-[2-(2-aminothiazol-4-yl)-2-(Z)-(hydroxyimino)acetamido]-3-[(pyrazol-4-yl)methylthio]-3-cephem-4-carboxylic acid containing 1/3 isopropanol]

Reference: patent US6468995B1, “Cephem compounds” (Fujisawa Pharmaceutical Co., Ltd., priority 1993, dated 2002)
